± gives the expanded uncertainty stated by the source.
Settings: Liquid, Buoyancy - hydrostatic balance with magnetic suspension - one sinker

## Cc1ccccc1 [toluene]
233.15 K, 101.25 kPa
  mass density: 922.207 ± 0.21 kg/m3
233.15 K, 1055.6 kPa
  mass density: 922.722 ± 0.21 kg/m3
233.15 K, 1861.3 kPa
  mass density: 923.156 ± 0.21 kg/m3
233.15 K, 3871.1 kPa
  mass density: 924.223 ± 0.21 kg/m3
233.15 K, 5873.9 kPa
  mass density: 925.287 ± 0.22 kg/m3
233.15 K, 8031.1 kPa
  mass density: 926.415 ± 0.22 kg/m3
233.15 K, 9906.5 kPa
  mass density: 927.392 ± 0.22 kg/m3
233.15 K, 11973 kPa
  mass density: 928.445 ± 0.22 kg/m3
233.15 K, 13947 kPa
  mass density: 929.451 ± 0.22 kg/m3
233.15 K, 15971 kPa
  mass density: 930.461 ± 0.22 kg/m3
233.15 K, 18029 kPa
  mass density: 931.487 ± 0.22 kg/m3
233.15 K, 19921 kPa
  mass density: 932.422 ± 0.22 kg/m3
233.15 K, 22000 kPa
  mass density: 933.432 ± 0.22 kg/m3
233.15 K, 24029 kPa
  mass density: 934.411 ± 0.22 kg/m3
233.15 K, 25833 kPa
  mass density: 935.279 ± 0.22 kg/m3
233.15 K, 27876 kPa
  mass density: 936.25 ± 0.22 kg/m3
233.15 K, 29776 kPa
  mass density: 937.146 ± 0.22 kg/m3
253.15 K, 102.01 kPa
  mass density: 903.705 ± 0.21 kg/m3
253.15 K, 1102.6 kPa
  mass density: 904.316 ± 0.21 kg/m3
253.15 K, 1837.1 kPa
  mass density: 904.762 ± 0.21 kg/m3
253.15 K, 3915.8 kPa
  mass density: 906 ± 0.21 kg/m3
253.15 K, 6024.3 kPa
  mass density: 907.237 ± 0.21 kg/m3
253.15 K, 7905.8 kPa
  mass density: 908.333 ± 0.21 kg/m3
253.15 K, 9884.5 kPa
  mass density: 909.467 ± 0.21 kg/m3
253.15 K, 11995 kPa
  mass density: 910.665 ± 0.21 kg/m3
253.15 K, 13975 kPa
  mass density: 911.777 ± 0.21 kg/m3
253.15 K, 15951 kPa
  mass density: 912.877 ± 0.21 kg/m3
253.15 K, 17978 kPa
  mass density: 913.989 ± 0.21 kg/m3
253.15 K, 20022 kPa
  mass density: 915.098 ± 0.21 kg/m3
253.15 K, 21921 kPa
  mass density: 916.119 ± 0.21 kg/m3
253.15 K, 24088 kPa
  mass density: 917.274 ± 0.21 kg/m3
253.15 K, 25990 kPa
  mass density: 918.275 ± 0.21 kg/m3
253.15 K, 27827 kPa
  mass density: 919.23 ± 0.21 kg/m3
253.15 K, 29746 kPa
  mass density: 920.223 ± 0.21 kg/m3
273.15 K, 97.87 kPa
  mass density: 885.25 ± 0.21 kg/m3
273.15 K, 1027.8 kPa
  mass density: 885.881 ± 0.21 kg/m3
273.15 K, 1996.9 kPa
  mass density: 886.534 ± 0.21 kg/m3
273.15 K, 4081.7 kPa
  mass density: 887.926 ± 0.21 kg/m3
273.15 K, 5913.4 kPa
  mass density: 889.129 ± 0.21 kg/m3
273.15 K, 8004.2 kPa
  mass density: 890.482 ± 0.21 kg/m3
273.15 K, 9932.4 kPa
  mass density: 891.714 ± 0.21 kg/m3
273.15 K, 11880 kPa
  mass density: 892.948 ± 0.21 kg/m3
273.15 K, 13888 kPa
  mass density: 894.195 ± 0.21 kg/m3
273.15 K, 16098 kPa
  mass density: 895.56 ± 0.21 kg/m3
273.15 K, 18099 kPa
  mass density: 896.771 ± 0.21 kg/m3
273.15 K, 19969 kPa
  mass density: 897.897 ± 0.21 kg/m3
273.15 K, 21860 kPa
  mass density: 899.011 ± 0.21 kg/m3
273.15 K, 23914 kPa
  mass density: 900.215 ± 0.21 kg/m3
273.15 K, 25980 kPa
  mass density: 901.41 ± 0.21 kg/m3
273.15 K, 28070 kPa
  mass density: 902.607 ± 0.21 kg/m3
273.15 K, 30123 kPa
  mass density: 903.766 ± 0.21 kg/m3
293.15 K, 99.87 kPa
  mass density: 866.733 ± 0.2 kg/m3
293.15 K, 101.56 kPa
  mass density: 866.808 ± 0.2 kg/m3
293.15 K, 1103.1 kPa
  mass density: 867.572 ± 0.2 kg/m3
293.15 K, 1127.8 kPa
  mass density: 867.518 ± 0.2 kg/m3
293.15 K, 1967 kPa
  mass density: 868.206 ± 0.2 kg/m3
293.15 K, 2003.6 kPa
  mass density: 868.257 ± 0.2 kg/m3
293.15 K, 2021.4 kPa
  mass density: 868.196 ± 0.2 kg/m3
293.15 K, 3955.9 kPa
  mass density: 869.643 ± 0.2 kg/m3
293.15 K, 4003.3 kPa
  mass density: 869.731 ± 0.2 kg/m3
293.15 K, 4004.5 kPa
  mass density: 869.753 ± 0.2 kg/m3
293.15 K, 5995 kPa
  mass density: 871.216 ± 0.2 kg/m3
293.15 K, 6031.6 kPa
  mass density: 871.224 ± 0.2 kg/m3
293.15 K, 6107.1 kPa
  mass density: 871.23 ± 0.2 kg/m3
293.15 K, 8032.8 kPa
  mass density: 872.623 ± 0.2 kg/m3
293.15 K, 8164.1 kPa
  mass density: 872.766 ± 0.2 kg/m3
293.15 K, 8180.3 kPa
  mass density: 872.799 ± 0.2 kg/m3
293.15 K, 9984.8 kPa
  mass density: 874.014 ± 0.2 kg/m3
293.15 K, 10008 kPa
  mass density: 874.081 ± 0.2 kg/m3
293.15 K, 10026 kPa
  mass density: 874.114 ± 0.2 kg/m3
293.15 K, 12005 kPa
  mass density: 875.479 ± 0.2 kg/m3
293.15 K, 12114 kPa
  mass density: 875.512 ± 0.2 kg/m3
293.15 K, 12190 kPa
  mass density: 875.631 ± 0.2 kg/m3
293.15 K, 13874 kPa
  mass density: 876.778 ± 0.2 kg/m3
293.15 K, 13947 kPa
  mass density: 876.779 ± 0.2 kg/m3
293.15 K, 14049 kPa
  mass density: 876.921 ± 0.2 kg/m3
293.15 K, 15849 kPa
  mass density: 878.081 ± 0.2 kg/m3
293.15 K, 16015 kPa
  mass density: 878.24 ± 0.2 kg/m3
293.15 K, 16153 kPa
  mass density: 878.35 ± 0.2 kg/m3
293.15 K, 17969 kPa
  mass density: 879.506 ± 0.2 kg/m3
293.15 K, 18022 kPa
  mass density: 879.584 ± 0.2 kg/m3
293.15 K, 18058 kPa
  mass density: 879.633 ± 0.2 kg/m3
293.15 K, 19969 kPa
  mass density: 880.88 ± 0.2 kg/m3
293.15 K, 19990 kPa
  mass density: 880.848 ± 0.2 kg/m3
293.15 K, 20012 kPa
  mass density: 880.925 ± 0.2 kg/m3
293.15 K, 21348 kPa
  mass density: 881.783 ± 0.2 kg/m3
293.15 K, 21972 kPa
  mass density: 882.207 ± 0.2 kg/m3
293.15 K, 22236 kPa
  mass density: 882.319 ± 0.2 kg/m3
293.15 K, 23457 kPa
  mass density: 883.155 ± 0.2 kg/m3
293.15 K, 23981 kPa
  mass density: 883.441 ± 0.2 kg/m3
293.15 K, 24105 kPa
  mass density: 883.586 ± 0.2 kg/m3
293.15 K, 25005 kPa
  mass density: 884.147 ± 0.2 kg/m3
293.15 K, 25908 kPa
  mass density: 884.671 ± 0.2 kg/m3
293.15 K, 26066 kPa
  mass density: 884.837 ± 0.2 kg/m3
293.15 K, 27839 kPa
  mass density: 885.935 ± 0.21 kg/m3
293.15 K, 27990 kPa
  mass density: 885.976 ± 0.21 kg/m3
293.15 K, 28091 kPa
  mass density: 886.104 ± 0.21 kg/m3
293.15 K, 28372 kPa
  mass density: 886.271 ± 0.21 kg/m3
293.15 K, 29914 kPa
  mass density: 887.239 ± 0.21 kg/m3
293.15 K, 30011 kPa
  mass density: 887.242 ± 0.21 kg/m3
313.15 K, 100.25 kPa
  mass density: 848.035 ± 0.2 kg/m3
313.15 K, 1103.1 kPa
  mass density: 848.903 ± 0.2 kg/m3
313.15 K, 2030.6 kPa
  mass density: 849.693 ± 0.2 kg/m3
313.15 K, 3897.3 kPa
  mass density: 851.277 ± 0.2 kg/m3
313.15 K, 6141.8 kPa
  mass density: 853.137 ± 0.2 kg/m3
313.15 K, 7925.2 kPa
  mass density: 854.59 ± 0.2 kg/m3
313.15 K, 9859 kPa
  mass density: 856.142 ± 0.2 kg/m3
313.15 K, 11935 kPa
  mass density: 857.774 ± 0.2 kg/m3
313.15 K, 13950 kPa
  mass density: 859.327 ± 0.2 kg/m3
313.15 K, 16069 kPa
  mass density: 860.941 ± 0.2 kg/m3
313.15 K, 17874 kPa
  mass density: 862.289 ± 0.2 kg/m3
313.15 K, 19838 kPa
  mass density: 863.738 ± 0.2 kg/m3
313.15 K, 22114 kPa
  mass density: 865.383 ± 0.2 kg/m3
313.15 K, 24097 kPa
  mass density: 866.799 ± 0.2 kg/m3
313.15 K, 25913 kPa
  mass density: 868.068 ± 0.2 kg/m3
313.15 K, 28005 kPa
  mass density: 869.523 ± 0.2 kg/m3
313.15 K, 29966 kPa
  mass density: 870.863 ± 0.2 kg/m3
333.15 K, 98.96 kPa
  mass density: 829.055 ± 0.19 kg/m3
333.15 K, 1101 kPa
  mass density: 830.042 ± 0.19 kg/m3
333.15 K, 2134.3 kPa
  mass density: 831.05 ± 0.19 kg/m3
333.15 K, 4003.8 kPa
  mass density: 832.841 ± 0.19 kg/m3
333.15 K, 6105.7 kPa
  mass density: 834.814 ± 0.19 kg/m3
333.15 K, 8005 kPa
  mass density: 836.556 ± 0.2 kg/m3

— the NIST ThermoML archive (doi:10.1016/j.jct.2010.08.010)
